Data from US20240358702A1, “CYCLIC UREA KRAS INHIBITORS” (INCYTE CORPORATION, priority 2023, published 2024).

What was measured:
KRAS G12D = KRAS G12D (Homo sapiens, UniProt P01116, G12D); test: GDP-GTP exchange assay (bodipy-GDP/GppNHp, SOS1), KRAS G12D; assay type: biochemical; conditions: KRAS_G12D exchange assay IC50; 4 h pre-incubation; value for the most potent isomer quoted
Method: (§1) The inhibitor potency of the exemplified compounds was determined in a fluorescence based guanine nucleotide exchange assay, which measures the exchange of bodipy-GDP (fluorescently labeled GDP) for GppNHp (Non-hydrolyzable GTP analog) to generate the active state of KRAS in the presence of SOS1 (guanine nucleotide exchange factor). Inhibitors were serially diluted in DMSO and a volume of 0.1 μL was transferred to the wells of a black low volume 384-well plate. 5 μL/well volume of bodipy-loaded KRAS G12D diluted to […] in assay buffer (25 mM Hepes pH 7.5, 50 mM NaCl, 10 mM mgCl2 and 0.01% Brij-35) was added to the plate and pre-incubated with inhibitor for 4 h at ambient temperature. Appropriate controls (enzyme with no inhibitor or with a G12D inhibitor) were included on the plate. The exchange was initiated by the addition of a 5 μL/well volume containing 1 mM GppNHp and 300 nM SOS1 in assay buffer. The 10 μL/well reaction concentration of the bodipy-loaded KRAS G12D, GppNHp, and SOS1 were 2.5 nM, 500 uM, and 150 nM, respectively. The reaction plates were incubated at ambient temperature for 2 h, a time estimated for complete GDP-GTP exchange in the absence of inhibitor. For the KRAS G12V mutant, similar guanine nucleotide exchange assays were used with 2.5 nM as final concentration for the bodipy loaded KRAS proteins and 3 h incubation after adding GppNHp-SOS1 mixture. A cyclic peptide described to selectively bind G12D mutant (Sakamoto et al., BBRC 484.3 (2017), 605-611) or internal compounds with confirmed binding were used as positive controls in the assay plates. Fluorescence intensities were measured on a PheraStar plate reader instrument (BMG Labtech) with excitation at 485 nm and emission at 520 nm.
(§2) Either GraphPad prism or Genedata Screener SmartFit was used to analyze the data. The IC50 values were derived by fitting the data to a four parameter logistic equation producing a sigmoidal dose-response curve with a variable Hill coefficient.
(§3) The symbol “t” indicates IC50≤100 nM, “††” indicates IC50>100 nM but ≤1 μM; and “†††” indicates IC50 is >1 μM but ≤5 μM, “††††” indicates IC50 is >5 μM but ≤10 μM. “NA” indicates IC50 not available.

KRAS G12V = KRAS G12V (Homo sapiens, UniProt P01116, G12V); test: GDP-GTP exchange assay (bodipy-GDP/GppNHp, SOS1), KRAS G12V; assay type: biochemical; conditions: KRAS_G12V exchange assay IC50, value for the most potent isomer quoted; for IC50: read-out: G12V_exchange
Chain of KRAS G12V (P01116 1-188 isoform P01116-2 G12V): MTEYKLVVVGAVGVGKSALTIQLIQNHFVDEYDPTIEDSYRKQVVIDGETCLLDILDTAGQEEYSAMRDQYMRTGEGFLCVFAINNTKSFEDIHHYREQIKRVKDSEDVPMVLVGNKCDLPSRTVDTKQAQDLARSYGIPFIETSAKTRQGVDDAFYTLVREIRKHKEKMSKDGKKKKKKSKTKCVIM
Method: as §1, §2, §3

Chain of KRAS G12D (P01116 1-188 isoform P01116-2 G12D): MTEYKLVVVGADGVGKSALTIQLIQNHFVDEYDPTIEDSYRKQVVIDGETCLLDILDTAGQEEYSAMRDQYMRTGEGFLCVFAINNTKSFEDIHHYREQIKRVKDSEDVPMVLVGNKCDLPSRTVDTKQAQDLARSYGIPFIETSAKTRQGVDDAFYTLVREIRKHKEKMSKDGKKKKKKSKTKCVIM

**Q.** Which results are given for `Cc1nc2c(F)c(-c3cccc(Cl)c3Cl)c(CCC#N)cc2c2c1cc([C@@H](C)N1CCCN(c3ccnc4sccc34)C1=O)n2[C@H]1[C@H]2CN[C@@H]1C2` (single isomer, unassigned) [Example 8]?
**A.** G12D_exchange (KRAS G12D): †; G12V_exchange (KRAS G12V): †

**Q.** Which results are given for `Cc1nc2c(F)c(-c3cccc(Cl)c3Cl)c(CCC#N)cc2c2c1cc([C@@H](C)N1CCCN(c3cncnc3)C1=O)n2[C@H]1[C@H]2CN[C@@H]1C2` (single isomer, unassigned) [Example 10]?
**A.** G12D_exchange (KRAS G12D): †; G12V_exchange (KRAS G12V): †

**Q.** What does the source list for `Cc1nc2c(F)c(-c3cccc(Cl)c3Cl)c(CCC#N)cc2c2c1cc([C@@H](C)N1CCCN(c3ccncn3)C1=O)n2[C@H]1[C@H]2CN[C@@H]1C2` (single isomer, unassigned) [Example 11]?
**A.** G12D_exchange (KRAS G12D): †; IC50 (KRAS G12V): 100 to 1000 nM

**Q.** What does the source list for `Cc1nc2c(F)c(-c3cccc(Cl)c3Cl)c(CCC#N)cc2c2c1cc([C@@H](C)N1CCCN(c3ccnc(C(F)F)c3)C1=O)n2[C@H]1[C@H]2CN[C@@H]1C2` (single isomer, unassigned) [Example 12]?
**A.** G12D_exchange (KRAS G12D): †; IC50 (KRAS G12V): 100 to 1000 nM

**Q.** How did the G12D_exchange (KRAS G12D) turn out when `Cc1nc2c(F)c(-c3cccc(Cl)c3Cl)c(CCC#N)cc2c2c1cc([C@@H](C)N1CCCN(c3ccnnc3)C1=O)n2[C@H]1[C@H]2CN[C@@H]1C2` [Example 9, 3-(1-((1R,4R,5S)-2-azabicyclo[2.1.1]hexan-5-yl)-7-(2,3-dichlorophenyl)-6-fluoro-4-methyl-2-((R)-1-(2-oxo-3-(pyridazin-4-yl)tetrahydropyrimidin-1(2H)-yl)ethyl)-1H-pyrrolo[3,2-c]quinolin-8-yl)propanenitrile] was run?
**A.** Its G12D_exchange is “†”.

**Q.** And the IC50 (KRAS G12V)?
**A.** Its IC50 is 100 to 1000 nM.

**Q.** Which G12D_exchange (KRAS G12D) does the source give for `Cc1nc2c(F)c(-c3cccc(Cl)c3Cl)c(CCC#N)cc2c2c1cc([C@@H](C)N1CCCN(c3ccccc3)C1=O)n2[C@H]1[C@H]2CN[C@@H]1C2` [Example 16, 3-(1-((1R,4R,5S)-2-azabicyclo[2.1.1]hexan-5-yl)-7-(2,3-dichlorophenyl)-6-fluoro-4-methyl-2-((R)-1-(2-oxo-3-phenyltetrahydropyrimidin-1(2H)-yl)ethyl)-1H-pyrrolo[3,2-c]quinolin-8-yl)propanenitrile] here?
**A.** The G12D_exchange was “†”.

**Q.** What about the G12V_exchange (KRAS G12V) of the same compound?
**A.** Its G12V_exchange is “†”.

**Q.** For `Cc1nc2c(F)c(-c3cccc(Cl)c3Cl)c(CCC#N)cc2c2c1cc([C@@H](C)N1CCCN(c3ccncc3)C1=O)n2[C@H]1[C@H]2CN[C@@H]1C2` [Example 17, 3-(1-((1R,4R,5S)-2-azabicyclo[2.1.1]hexan-5-yl)-7-(2,3-dichlorophenyl)-6-fluoro-4-methyl-2-((R)-1-(2-oxo-3-(pyridin-4-yl)tetrahydropyrimidin-1(2H)-yl)ethyl)-1H-pyrrolo[3,2-c]quinolin-8-yl)propanenitrile], which G12D_exchange (KRAS G12D) is on record?
**A.** The G12D_exchange was “†”.

**Q.** And the IC50 (KRAS G12V)?
**A.** Its IC50 is 100 to 1000 nM.

**Q.** Which G12D_exchange (KRAS G12D) does the source give for `Cc1nc2c(F)c(-c3cccc(Cl)c3Cl)c(CCC#N)cc2c2c1cc([C@@H](C)N1CCCN(c3ccc(F)cc3)C1=O)n2[C@H]1[C@H]2CN[C@@H]1C2` [Example 18, 3-(1-((1R,4R,5S)-2-azabicyclo[2.1.1]hexan-5-yl)-7-(2,3-dichlorophenyl)-6-fluoro-2-((R)-1-(3-(4-fluorophenyl)-2-oxotetrahydropyrimidin-1(2H)-yl)ethyl)-4-methyl-1H-pyrrolo[3,2-c]quinolin-8-yl)propanenitrile] here?
**A.** Its G12D_exchange is “†”.

**Q.** And the G12V_exchange (KRAS G12V)?
**A.** Its G12V_exchange is “†”.

**Q.** With `Cc1nc2c(F)c(-c3cccc(Cl)c3Cl)c(CCC#N)cc2c2c1cc([C@@H](C)N1CCCN(c3ccccn3)C1=O)n2[C@H]1[C@H]2CN[C@@H]1C2` [Example 19, 3-(1-((1R,4R,5S)-2-azabicyclo[2.1.1]hexan-5-yl)-7-(2,3-dichlorophenyl)-6-fluoro-4-methyl-2-((R)-1-(2-oxo-3-(pyridin-2-yl)tetrahydropyrimidin-1(2H)-yl)ethyl)-1H-pyrrolo[3,2-c]quinolin-8-yl)propanenitrile] as the compound, how does the G12D_exchange (KRAS G12D) read?
**A.** Its G12D_exchange is “†”.

**Q.** And the G12V_exchange (KRAS G12V)?
**A.** Its G12V_exchange is “†”.

**Q.** Which G12D_exchange (KRAS G12D) does the source give for `COc1ncccc1N1CCCN([C@H](C)c2cc3c(C)nc4c(F)c(-c5cccc(Cl)c5Cl)c(CCC#N)cc4c3n2[C@H]2[C@H]3CN[C@@H]2C3)C1=O` [Example 20, 3-(1-((1R,4R,5S)-2-azabicyclo[2.1.1]hexan-5-yl)-7-(2,3-dichlorophenyl)-6-fluoro-2-((R)-1-(3-(2-methoxypyridin-3-yl)-2-oxotetrahydropyrimidin-1(2H)-yl)ethyl)-4-methyl-1H-pyrrolo[3,2-c]quinolin-8-yl)propanenitrile] here?
**A.** Its G12D_exchange is “†”.

**Q.** What about the IC50 (KRAS G12V) of the same compound?
**A.** The IC50 was 100 to 1000 nM.

**Q.** What does the source list for `Cc1nc2c(F)c(-c3cccc(Cl)c3Cl)c(CCC#N)cc2c2c1cc([C@@H](C)N1CCCN(c3ccncc3F)C1=O)n2[C@H]1[C@H]2CN[C@@H]1C2` [Example 21, 3-(1-((1R,4R,5S)-2-azabicyclo[2.1.1]hexan-5-yl)-7-(2,3-dichlorophenyl)-6-fluoro-2-((R)-1-(3-(3-fluoropyridin-4-yl)-2-oxotetrahydropyrimidin-1(2H)-yl)ethyl)-4-methyl-1H-pyrrolo[3,2-c]quinolin-8-yl)propanenitrile]?
**A.** G12D_exchange (KRAS G12D): †; G12V_exchange (KRAS G12V): †

**Q.** For `COc1cc(N2CCCN([C@H](C)c3cc4c(C)nc5c(F)c(-c6cccc(Cl)c6Cl)c(CCC#N)cc5c4n3[C@H]3[C@H]4CN[C@@H]3C4)C2=O)ccn1` [Example 22, 3-(1-((1R,4R,5S)-2-azabicyclo[2.1.1]hexan-5-yl)-7-(2,3-dichlorophenyl)-6-fluoro-2-((R)-1-(3-(2-methoxypyridin-4-yl)-2-oxotetrahydropyrimidin-1(2H)-yl)ethyl)-4-methyl-1H-pyrrolo[3,2-c]quinolin-8-yl)propanenitrile], which G12D_exchange (KRAS G12D) is on record?
**A.** Its G12D_exchange is “†”.

**Q.** And the G12V_exchange (KRAS G12V)?
**A.** The G12V_exchange was “†”.

**Q.** Which G12D_exchange (KRAS G12D) does the source give for `Cc1nc2c(F)c(-c3cccc(Cl)c3Cl)c(CCC#N)cc2c2c1cc([C@@H](C)N1CCCN(c3cccnc3)C1=O)n2[C@H]1[C@H]2CN[C@@H]1C2` [Example 23, 3-(1-((1R,4R,5S)-2-azabicyclo[2.1.1]hexan-5-yl)-7-(2,3-dichlorophenyl)-6-fluoro-4-methyl-2-((R)-1-(2-oxo-3-(pyridin-3-yl)tetrahydropyrimidin-1(2H)-yl)ethyl)-1H-pyrrolo[3,2-c]quinolin-8-yl)propanenitrile] here?
**A.** Its G12D_exchange is “†”.

**Q.** What about the G12V_exchange (KRAS G12V) of the same compound?
**A.** Its G12V_exchange is “†”.

**Q.** `Cc1nc2c(F)c(-c3cccc(Cl)c3Cl)c(CCC#N)cc2c2c1cc([C@@H](C)N1CCCN(c3cccc(C4(O)COC4)c3)C1=O)n2[C@H]1[C@H]2CN[C@@H]1C2` [Example 24, 3-(1-((1R,4R,5S)-2-azabicyclo[2.1.1]hexan-5-yl)-7-(2,3-dichlorophenyl)-6-fluoro-2-((R)-1-(3-(3-(3-hydroxyoxetan-3-yl)phenyl)-2-oxotetrahydropyrimidin-1(2H)-yl)ethyl)-4-methyl-1H-pyrrolo[3,2-c]quinolin-8-yl)propanenitrile] was tested. Which G12D_exchange (KRAS G12D) did it give?
**A.** Its G12D_exchange is “†”.

**Q.** What about the G12V_exchange (KRAS G12V) of the same compound?
**A.** The G12V_exchange was “†”.

**Q.** For `Cc1nc2c(F)c(-c3cccc(Cl)c3Cl)c(CCC#N)cc2c2c1cc([C@@H](C)N1CCCN(c3ccc(C#N)cc3)C1=O)n2[C@H]1[C@H]2CN[C@@H]1C2` [Example 25, 4-(3-((1R)-1-(1-((1R,4R,5S)-2-azabicyclo[2.1.1]hexan-5-yl)-8-(2-cyanoethyl)-7-(2,3-dichlorophenyl)-6-fluoro-4-methyl-1H-pyrrolo[3,2-c]quinolin-2-yl)ethyl)-2-oxotetrahydropyrimidin-1(2H)-yl)benzonitrile], which G12D_exchange (KRAS G12D) is on record?
**A.** The G12D_exchange was “†”.

**Q.** And the IC50 (KRAS G12V)?
**A.** The IC50 was 100 to 1000 nM.

**Q.** With `Cc1cc(N2CCCN([C@H](C)c3cc4c(C)nc5c(F)c(-c6cccc(Cl)c6Cl)c(CCC#N)cc5c4n3[C@H]3[C@H]4CN[C@@H]3C4)C2=O)ccn1` [Example 26, 3-(1-((1R,4R,5S)-2-azabicyclo[2.1.1]hexan-5-yl)-7-(2,3-dichlorophenyl)-6-fluoro-4-methyl-2-((R)-1-(3-(2-methylpyridin-4-yl)-2-oxotetrahydropyrimidin-1(2H)-yl)ethyl)-1H-pyrrolo[3,2-c]quinolin-8-yl)propanenitrile] as the compound, how does the G12D_exchange (KRAS G12D) read?
**A.** Its G12D_exchange is “†”.

**Q.** What about the IC50 (KRAS G12V) of the same compound?
**A.** The IC50 was 100 to 1000 nM.

**Q.** Which G12D_exchange (KRAS G12D) does the source give for `Cc1nc2c(F)c(-c3cccc(Cl)c3Cl)c(CCC#N)cc2c2c1cc([C@@H](C)N1CCCN(c3ccnnc3)C1=O)n2[C@H]1[C@H]2CN[C@@H]1C2` [Example 35, 3-(1-((1R,4R,5S)-2-azabicyclo[2.1.1]hexan-5-yl)-7-(2,3-dichlorophenyl)-6-fluoro-4-methyl-2-((R)-1-(2-oxo-3-(pyridazin-4-yl)tetrahydropyrimidin-1(2H)-yl)ethyl)-1H-pyrrolo[3,2-c]quinolin-8-yl)propanenitrile] here?
**A.** The G12D_exchange was “†”.
